Test results published in article PMC4676015, “Variant fatty acid-like molecules Conjugation, novel approaches for extending the stability of therapeutic peptides” (Scientific Reports, 2015).

What was measured:
[1] = biological target: T1, DPP IV enzyme (Homo sapiens, UniProt P27487); assay: Stability against DPP IV proteolysis with or without HSA; format: in vitro ADME; details: 37 °C, GLP-1 (7–37) ELISA; for detectability of full-length peptide at 24 h: pH 7.0, in the presence of human serum albumin (2%); for AUCGLP-1(7–37) in proteolysis solution compared to native GLP-1: DPP IV proteolysis solution, P < 0.01
T1 construct: purchased Sigma-Aldrich
Protocol: DPP IV enzyme (0.1 mg/ml) was dissolved in 25 mM potassium phosphate buffer containing 25 mM potassium chloride and 5 mM magnesium chloride, pH 7.0.

[2] = biological target: T2, GLP-1 receptor (GLP-1R) (Rattus norvegicus, UniProt P32301); assay: GLP-1 receptor binding assay (cellular ELISA)
T2 construct: endogenous in cells; host or cells: rat INS-1 cells
T2 sequence (P32301 22-463): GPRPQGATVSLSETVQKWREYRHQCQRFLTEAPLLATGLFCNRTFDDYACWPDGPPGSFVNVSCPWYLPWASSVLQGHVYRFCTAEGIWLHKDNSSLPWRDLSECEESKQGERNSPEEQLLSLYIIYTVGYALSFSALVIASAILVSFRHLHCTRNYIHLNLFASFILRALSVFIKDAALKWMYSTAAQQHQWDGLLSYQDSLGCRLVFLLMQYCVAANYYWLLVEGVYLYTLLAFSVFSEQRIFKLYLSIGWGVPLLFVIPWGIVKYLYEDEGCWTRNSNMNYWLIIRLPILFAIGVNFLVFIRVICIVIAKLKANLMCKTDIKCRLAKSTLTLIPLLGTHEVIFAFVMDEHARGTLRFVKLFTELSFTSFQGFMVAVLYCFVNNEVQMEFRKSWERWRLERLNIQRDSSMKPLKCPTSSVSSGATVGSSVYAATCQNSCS
Protocol: Cells were rinsed with PBS and fixed with 4% paraformaldehyde (Thermo Scientific) for 10 min at room temperature and quenched for 5 min with 2% glycine in PBS, pH 7.5. […] After a 2 h incubation at 37 °C in a final volume of 100 μl, the excess peptides were washed, and the cells were blocked with 5% BSA (BD Biosciences). […] Colorimetric changes were analyzed by reading the absorbance at 450 nm in a SpectraMax M5 (Molecular Device) microplate reader. The peptide concentration was plotted against UV absorbance, and the Kd was calculated using Origin 7.0 software.

[3] = DPP IV 0.1 mg/ml, peptide 1 mg/ml

T1 sequence (P27487 whole entry, species assumed): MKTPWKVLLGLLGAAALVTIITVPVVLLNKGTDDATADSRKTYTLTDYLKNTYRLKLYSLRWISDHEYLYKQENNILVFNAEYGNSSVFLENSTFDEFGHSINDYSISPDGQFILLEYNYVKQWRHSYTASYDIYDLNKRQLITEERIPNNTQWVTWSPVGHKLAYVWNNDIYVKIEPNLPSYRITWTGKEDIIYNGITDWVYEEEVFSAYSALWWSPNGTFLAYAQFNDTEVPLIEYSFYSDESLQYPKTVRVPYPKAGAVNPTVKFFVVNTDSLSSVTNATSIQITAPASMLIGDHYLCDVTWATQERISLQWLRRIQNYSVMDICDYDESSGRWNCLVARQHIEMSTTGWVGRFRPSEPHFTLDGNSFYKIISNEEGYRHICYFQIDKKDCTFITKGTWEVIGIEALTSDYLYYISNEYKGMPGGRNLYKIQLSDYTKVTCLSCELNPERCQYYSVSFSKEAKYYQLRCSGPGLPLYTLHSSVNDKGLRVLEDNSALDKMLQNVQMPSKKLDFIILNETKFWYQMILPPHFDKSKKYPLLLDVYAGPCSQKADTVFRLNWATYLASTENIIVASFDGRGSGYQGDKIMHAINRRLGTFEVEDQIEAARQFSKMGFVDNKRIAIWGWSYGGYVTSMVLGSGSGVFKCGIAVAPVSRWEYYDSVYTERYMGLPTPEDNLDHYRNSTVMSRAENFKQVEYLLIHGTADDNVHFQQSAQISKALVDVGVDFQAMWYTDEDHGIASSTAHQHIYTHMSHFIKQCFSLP

SMILES | degradation in DPP IV proteolysis compared with wild-type GLP-1, within 24 h ([1]; DPP IV 0.1 mg/ml, 25 mM potassium phosphate, 25 mM KCl, 5 mM MgCl2, pH 7.0, 2% HSA, peptide 1 mg/ml, 24 h) | detectability of full-length peptide at 24 h [1, 3] | Kd [2] [nM] | AUCGLP-1(7–37) in proteolysis solution compared to native GLP-1 [1]
CCCCCCCCCCCCNC(=O)CC[C@H](NC(=O)[C@H](CCCCN)NC(=O)[C@H](C)NC(=O)[C@H](C)NC(=O)[C@H](CCC(N)=O)NC(=O)CNC(=O)[C@H](CCC(=O)O)NC(=O)[C@H](CC(C)C)NC(=O)[C@H](Cc1ccc(O)cc1)NC(=O)[C@H](CO)NC(=O)[C@H](CO)NC(=O)[C@@H](NC(=O)[C@H](CC(=O)O)NC(=O)[C@H](CO)NC(=O)[C@@H](NC(=O)[C@H](Cc1ccccc1)NC(=O)[C@@H](NC(=O)CNC(=O)[C@H](CCC(=O)O)NC(=O)[C@H](C)NC(=O)[C@@H](N)Cc1c[nH]cn1)[C@@H](C)O)[C@@H](C)O)C(C)C)C(=O)N[C@@H](Cc1ccccc1)C(=O)N[C@H](C(=O)N[C@@H](C)C(=O)N[C@@H](Cc1c[nH]c2ccccc12)C(=O)N[C@@H](CC(C)C)C(=O)N[C@H](C(=O)N[C@@H](CCCCN)C(=O)NCC(=O)N[C@@H](CCCNC(=N)N)C(=O)NCC(=O)O)C(C)C)[C@@H](C)CC [compound 17] | slower degradation rates | still detectable at 24 h | 18.7 ± 2.13 | 
CCCCCCCCCCCCCCCCNC(=O)C[C@H](NC(=O)[C@@H](NC(=O)[C@H](CC(C)C)NC(=O)[C@H](Cc1c[nH]c2ccccc12)NC(=O)[C@H](C)NC(=O)[C@@H](NC(=O)[C@H](Cc1ccccc1)NC(=O)[C@H](CCC(=O)O)NC(=O)[C@H](CCCCN)NC(=O)[C@H](C)NC(=O)[C@H](C)NC(=O)[C@H](CCC(N)=O)NC(=O)CNC(=O)[C@H](CCC(=O)O)NC(=O)[C@H](CC(C)C)NC(=O)[C@H](Cc1ccc(O)cc1)NC(=O)[C@H](CO)NC(=O)[C@H](CO)NC(=O)[C@@H](NC(=O)[C@H](CC(=O)O)NC(=O)[C@H](CO)NC(=O)[C@@H](NC(=O)[C@H](Cc1ccccc1)NC(=O)[C@@H](NC(=O)CNC(=O)[C@H](CCC(=O)O)NC(=O)[C@H](C)NC(=O)[C@@H](N)Cc1c[nH]cn1)[C@@H](C)O)[C@@H](C)O)C(C)C)[C@@H](C)CC)C(C)C)C(=O)NCC(=O)N[C@@H](CCCNC(=N)N)C(=O)NCC(=O)O [compound 21] |  | still detectable at 24 h | 17.5 ± 2.75 | significantly increased
CC[C@H](C)[C@H](NC(=O)[C@H](Cc1ccccc1)NC(=O)[C@H](CCC(=O)O)NC(=O)[C@H](CCCCN)NC(=O)[C@H](C)NC(=O)[C@H](C)NC(=O)[C@H](CCC(N)=O)NC(=O)CNC(=O)[C@H](CCC(=O)NCCCCCCCCCCCC(=O)O)NC(=O)[C@H](CC(C)C)NC(=O)[C@H](Cc1ccc(O)cc1)NC(=O)[C@H](CO)NC(=O)[C@H](CO)NC(=O)[C@@H](NC(=O)[C@H](CC(=O)O)NC(=O)[C@H](CO)NC(=O)[C@@H](NC(=O)[C@H](Cc1ccccc1)NC(=O)[C@@H](NC(=O)CNC(=O)[C@H](CCC(=O)O)NC(=O)[C@H](C)NC(=O)[C@@H](N)Cc1c[nH]cn1)[C@@H](C)O)[C@@H](C)O)C(C)C)C(=O)N[C@@H](C)C(=O)N[C@@H](Cc1c[nH]c2ccccc12)C(=O)N[C@@H](CC(C)C)C(=O)N[C@H](C(=O)N[C@@H](CCCCN)C(=O)NCC(=O)N[C@@H](CCCNC(=N)N)C(=O)NCC(=O)O)C(C)C [compound 23] |  | still detectable at 24 h | 24.3 ± 1.96 | significantly increased
